Data set [1] can be described thus: Stability/conversion of esters in rat liver S9. The data set is classed as in vitro ADME. As for the experimental part: (§1) The human intestinal S9 with the absence of PMSF, human liver S9, rat intestinal S9, and rat liver S9 preparations were obtained from Xenotech (Lenexa, Kans.). The 500-μL incubation solution contained 0.8 mg/mL of enzyme (or no enzyme for buffer stability), 10 μM of test compounds in 100 mM of HEPES buffer, pH 7.4. The hydrolysis reactions were conducted in a 1-mL glass insert (Analytical Sales, Pompton Plains, N.J.) in a shake water bath at 37° C. At 0, 2, 5, 10, 15, 30 and 60 min, the reaction was terminated by pipetting 50 μL incubate to a 96 DeepWell plate (Thermo Fisher Scientific, Rochester, N.Y.) containing 100 μL of acetonitrile with 250 ng/mL of Carbutamide (Sigma-Aldrich, St. Louis, Miss.) as the internal standard. The crashed solutions were then vortexed well followed by centrifuge at 4000 rpm for 15 min at 4° C. The extract was transferred to a new 96 DeepWell plate for LC-MS/MS analysis.
(§2) LC-MS/MS analysis was done using an AB Sciex QTrap 6500 mass spectrometer under positive ionization mode, coupled to a Schimadzu Nexera LC system.
(§3) A Waters Atlantis T3 (3 μm, 3.0×50 mm) column was used for separation. The mobile phase consisted 0.1% formic acid in water (A) and 0.1% formic acid in acetonitrile (B) with a flow rate set at 1.2 mL/min. For the prodrug analysis, the Multiple Reaction Monitoring (MRM) specific for each compound was set up so that both prodrug and its hydrolyzed active can be monitored simultaneously.
(§4) Half-lives listed are based on disappearance of starting ester.

A short description of data set [2]: Stability in pH 7.4 buffer (no enzyme). It is filed as physicochemical. The settings on record: read-out: T1/2 pH 7.4 Buffer. As for the experimental part:
as §1, §2, §3, §4

Data set [3] can be described thus: Stability/conversion of esters in human intestinal S9. The data set is classed as in vitro ADME. As for the experimental part:
as §1, §2, §3, §4

A short description of data set [4]: Stability/conversion of esters in human liver S9. The data set is classed as in vitro ADME. How it is done:
as §1, §2, §3, §4

A short description of data set [5]: Stability/conversion of esters in rat intestinal S9. The data set is classed as in vitro ADME. How it is done:
as §1, §2, §3, §4

Data set [6] deals with TEM-1 (Class A beta-lactamase) (Escherichia coli, UniProt P62593). Put plainly: Inhibition of beta-lactamase enzymes (nitrocefin hydrolysis), TEM-1. It is filed as biochemical. Particulars: read-out: Class A TEM-1 60 min IC50, nitrocefin 100 μM. How it is done: (§5) A buffer consisting of 0.1 M sodium phosphate (pH 7.0), 10 mM NaHCO3, and 0.005% Triton X-100 was used for all enzymes. The chromogenic substrate nitrocefin (SynGene, Bangalore, India) was used at 100 μM. Enzyme activity was monitored by the 490 nm absorbance increase upon nitrocefin hydrolysis. Assays were performed in clear polystyrene 384-well plates (Greiner Bio-One, Monroe, N.C.). Absorbance was measured for 1 hour at 30-s intervals using a Spectramax absorbance plate reader (Molecular Devices, Sunnyvale, Calif.). Measurement of beta-lactamase inhibition by INHIBITOR employed serial 3-fold dilutions of the inhibitor in assay buffer, ranging from 100 μM to 62.7 pM. A background absorbance progress curve for a control lacking enzyme and inhibitor was subtracted from each progress curve.
Chain of TEM-1 (Class A beta-lactamase) (P62593 whole entry, looked up, species assumed): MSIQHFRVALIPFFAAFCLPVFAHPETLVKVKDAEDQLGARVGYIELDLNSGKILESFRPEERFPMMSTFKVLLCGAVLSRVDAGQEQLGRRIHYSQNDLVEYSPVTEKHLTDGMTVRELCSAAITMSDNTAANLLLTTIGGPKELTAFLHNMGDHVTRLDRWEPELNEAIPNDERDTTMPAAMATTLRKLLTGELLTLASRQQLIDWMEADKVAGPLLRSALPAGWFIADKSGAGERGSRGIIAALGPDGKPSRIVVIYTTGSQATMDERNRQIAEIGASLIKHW
(§6) The complete set of progress curves for one enzyme with all inhibitor concentrations was subjected to numerical integration with the program Kintek Global Kinetic Explorer (Kintek Corp, Snowshoe Pa.) to obtain a best-fit to the mechanism shown in Scheme 10.
(§7) where E, S, ES, P, I, and EI are the concentrations of the enzyme, nitrocefin, the enzyme-nitrocefin complex, the nitrocefin hydrolysis product, INHIBITOR, and the enzyme-INHIBITOR complex respectively. […] The values of k+2, k+3, and k−3 were fit. Concentration series offsets of the absorbance measurements were used to correct for slight absorbance baseline differences between wells. The parameter k+3 is equivalent to the second order rate constant kinact/Ki. In some cases, the inhibition was in rapid equilibrium on the experimental time scale, so that only the ratio k−3/k+3=Ki could be determined. Although k−3 represents reversal of inhibitor binding in Scheme 10, hydrolysis of the enzyme-inhibitor complex could not be excluded based on kinetic measurements.
(§8) Best-fit absorbance values from the above procedure at each time point for each compound concentration were exported to Excel.
(§9) where A is the best-fit absorbance without inhibitor and Ainhib is the best-fit absorbance in the presence of the inhibitor.
(§10) where [I] is the inhibitor concentration and n is the Hill coefficient. The Excel add-in XLfit (ID Business Solutions) was used for nonlinear regression.

Data set [7] addresses OXA-48 (Class D beta-lactamase) (Klebsiella pneumoniae, UniProt Q6XEC0). Description: Inhibition of beta-lactamase enzymes (nitrocefin hydrolysis), OXA-48. It is filed as biochemical. Particulars: read-out: Class D OXA-48 60 min IC50, nitrocefin 100 μM. How it is done:
as §5, §6, §7, §8, §9, §10

Where [8] appears, read: s9, pH 7.4, read-out: T1/2 Rat Liver S9.
Where [9] appears, read: s9, pH 7.4, read-out: T1/2 Human Intestinal S9.
[10] abbreviates: s9, pH 7.4, read-out: T1/2 Human Liver S9.
[11] abbreviates: s9, pH 7.4, read-out: T1/2 Rat Intestinal S9.
Where [12] appears, read: liver S9, pH 7.4, read-out: T1/2 Rat Liver S9.
[13] abbreviates: intestinal S9 (without PMSF), pH 7.4, read-out: T1/2 Human Intestinal S9.
Where [14] appears, read: liver S9, pH 7.4, read-out: T1/2 Human Liver S9.
The mark [15] stands for this setting: intestinal S9, pH 7.4, read-out: T1/2 Rat Intestinal S9.

Molecules are shown by their SMILES. Structures can show the parent of a compound that is named as a salt.

Half-life and IC50 data for 16 compounds are collected here from patent US10800778B2 (Entasis Therapeutics Limited, priority 2016, dated 2020).

Chain of OXA-48 (Class D beta-lactamase) (Q6XEC0 whole entry, looked up, species assumed): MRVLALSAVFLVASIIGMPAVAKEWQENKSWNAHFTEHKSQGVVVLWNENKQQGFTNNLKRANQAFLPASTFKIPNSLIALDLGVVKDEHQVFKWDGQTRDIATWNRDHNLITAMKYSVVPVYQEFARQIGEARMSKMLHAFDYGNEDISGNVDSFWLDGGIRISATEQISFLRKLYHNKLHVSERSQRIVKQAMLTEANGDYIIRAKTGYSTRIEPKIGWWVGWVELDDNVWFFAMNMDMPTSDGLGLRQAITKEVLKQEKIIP

On to `CC[C@H](C)OC(=O)[C@@H](F)ON1C(=O)N2C[C@H]1C=C(C)[C@H]2C(N)=O` [Example 20, (2R)-(S)-sec-butyl 2-(((2S,5R)-2-carbamoyl-3-methyl-7-oxo-1,6-diazabicyclo[3.2.1]oct-3-en-6-yl)oxy)-2-fluoroacetate], for which the half-life at 10 μM in data set [1] (setting [8]) amounted to 6.1 min; in data set [2] (buffer), 39 min; in data set [3] (setting [9]), 40 min; in data set [4] (setting [10]), 5.1 min; in data set [5] (setting [11]) it was 54 min.

With `COCCOC(=O)[C@@H](F)ON1C(=O)N2C[C@H]1C=C(C)[C@H]2C(N)=O` [Example 18, 2-methoxyethyl (2R)-{[(2S,5R)-2-carbamoyl-3-methyl-7-oxo-1,6-diazabicyclo[3.2.1]oct-3-en-6-yl]oxy}(fluoro)ethanoate], the half-life at 10 μM in data set [1] (setting [12]) amounted to 7 min; in data set [2] (HEPES buffer without enzyme), 18 min; in data set [3] (setting [13]), 15 min; in data set [4] (setting [14]) it was 9.2 min; in data set [5] (setting [15]) it was 16 min.

As to `CCCCCCCCOC(=O)[C@@H](F)ON1C(=O)N2C[C@H]1C=C(C)[C@H]2C(N)=O` [Example 45, octyl (2R)-2-[[(2S,5R)-2-carbamoyl-3-methyl-7-oxo-1,6-diazabicyclo[3.2.1]oct-3-en-6-yl]oxy]-2-fluoro-acetate], the half-life at 10 μM in data set [1] (setting [12]) worked out at 0.22 min; in data set [2] (HEPES buffer without enzyme), 33 min; in data set [3] (setting [13]), 2 min; in data set [4] (setting [14]), 0.39 min; in data set [5] (setting [15]) it was 17 min.

On to `CCOC(=O)[C@@H](F)ON1C(=O)N2C[C@H]1C(C)=C[C@H]2C#N` [Example 94, ethyl (2R)-2-(((2S,5R)-2-cyano-4-methyl-7-oxo-1,6-diazabicyclo[3.2.1]oct-3-en-6-yl)oxy)-2-fluoroacetate], for which the half-life at 10 μM is 1.3 min in data set [1] (setting [8]), 46.9 min in data set [2] (buffer), 10.6 min in data set [3] (setting [9]) and 25.9 min in data set [5] (setting [11]).

A word on the IC50: it is the concentration that inhibits the measured activity by half. Consider `NC(=O)[C@@H]1C(C2CC2)=C[C@@H]2CN1C(=O)N2OC(F)C(=O)O` (stereo in doubt) [Example 42, (2R)-2-(((2S,5R)-2-carbamoyl-3-cyclopropyl-7-oxo-1,6-diazabicyclo[3.2.1]oct-3-en-6-yl)oxy)-2-fluoroacetic acid lithium salt], for which the 50% inhibitory concentration (IC50) turned out to be 24 nM in data set [6] and 5.2 nM in data set [7].

Regarding `CCC(CC)OC(=O)[C@@H](F)ON1C(=O)N2C[C@H]1C=C(C)[C@H]2C(N)=O` [Example 24, (R)-pentan-3-yl 2-((2S,5R)-2-carbamoyl-3-methyl-7-oxo-1,6-diazabicyclo[3.2.1]oct-3-en-6-yloxy)-2-fluoroacetate], the half-life at 10 μM was greater than 100 min in data set [2] (buffer), 34 min in data set [3] (setting [9]) and 9 min in data set [4] (setting [10]).

With `CC1=C[C@@H]2CN(C(=O)N2O[C@@H](F)C(=O)O)[C@@H]1C(=O)NCCS(N)(=O)=O` [Example 57, (2S)-2-fluoro-2-[[(2S,5R)-3-methyl-7-oxo-2-(2-sulfamoylethylcarbamoyl)-1,6-diazabicyclo[3.2.1]oct-3-en-6-yl]oxy]acetic acid lithium salt], the results for the IC50 in data set [6] and in data set [7] were 57 nM and 410 nM, respectively.

Turning to `CC1=C[C@@H]2CN(C(=O)N2O[C@@H](F)C(=O)O)[C@@H]1C(=O)NCc1cnccn1` [Example 69, (2S)-2-fluoro-2-[[(2S,5R)-3-methyl-7-oxo-2-(pyrazin-2-ylmethyl-carbamoyl)-1,6-diazabicyclo[3.2.1]oct-3-en-6-yl]oxy]acetic acid lithium salt], the IC50 is 180 nM in data set [6] and 110 nM in data set [7].

With `CC(=O)NNC(=O)[C@@H]1C(C)=C[C@@H]2CN1C(=O)N2OC(F)C(=O)O` (stereo partly drawn) [Example 27, 2-(((2S,5R)-2-(2-acetylhydrazinecarbonyl)-3-methyl-7-oxo-1,6-diazabicyclo[3.2.1]oct-3-en-6-yl)oxy)-2-fluoroacetic acid lithium salt], the IC50 was determined as 47 nM in data set [6] and 18 nM in data set [7].

Regarding `CC1=C[C@@H]2CN(C(=O)N2O[C@@H](F)C(=O)OC(C)C)[C@@H]1C(N)=O` [Example 13, propan-2-yl (2S)-{[(2S,5R)-2-carbamoyl-3-methyl-7-oxo-1,6-diazabicyclo[3.2.1]oct-3-en-6-yl]oxy}(fluoro)ethanoate], the values for the half-life at 10 μM in data set [2] (HEPES buffer without enzyme), in data set [3] (setting [13]) and in data set [4] (setting [14]) were 55 min, 44 min and 1 min, respectively.

For the compound `CC(=O)NC[C@@H]1C(C)=C[C@@H]2CN1C(=O)N2O[C@@H](F)C(=O)O` [Example 78, (2S)-2-[[(2S,5R)-2-(acetamidomethyl)-3-methyl-7-oxo-1,6-diazabicyclo[3.2.1]oct-3-en-6-yl]oxy]-2-fluoro-acetic acid lithium salt], the IC50 in data set [6] was found to be 3600 nM; in data set [7], 690 nM.

Take `CC1=C[C@@H]2CN(C(=O)N2O[C@@H](F)C(=O)O)[C@@H]1CNC(=O)C(F)(F)F` [Example 79, (2S)-2-fluoro-2-[[(2S,5R)-3-methyl-7-oxo-2-[[(2,2,2-trifluoroacetyl)-aminolmethyl]-1,6-diazabicyclo[3.2.1]oct-3-en-6-yl]oxy]acetic acid lithium salt]: the results for the IC50 in data set [6] and in data set [7] were 4200 nM and 5700 nM, respectively.

Take `CC1=C[C@@H]2CN(C(=O)N2O[C@@H](F)C(=O)O)[C@@H]1CN` [Example 77, (2S)-2-[[(2S,5R)-2-(aminomethyl)-3-methyl-7-oxo-1,6-diazabicyclo[3.2.1]oct-3-en-6-yl]oxy]-2-fluoro-acetic acid]: the IC50 in data set [6] and in data set [7] was greater than 100000 nM in each case.

In the case of `CC1=C[C@@H]2CN(C(=O)N2OC(F)C(=O)O)[C@@H]1c1nnc(C(N)=O)o1` (stereo partly drawn) [Example 55, 2-[[(2S,5R)-2-(5-carbamoyl-1,3,4-oxadiazol-2-yl)-3-methyl-7-oxo-1,6-diazabicyclo[3.2.1]oct-3-en-6-yl]oxy]-2-fluoro-acetic acid lithium salt], the IC50 in data set [6] was 24 nM; in data set [7], 7.3 nM.

In the case of `CC1=C[C@@H]2CN(C(=O)N2O[C@@H](F)C(=O)O)[C@@H]1C(=O)NCC[C@@H]1CCC(=O)N1` [Example 73, (2S)-2-fluoro-2-[[(2S,5R)-3-methyl-7-oxo-2-[2-(5-oxopyrrolidin-2-yl)ethylcarbamoyl]-1,6-diazabicyclo[3.2.1]oct-3-en-6-yl]oxy]acetic acid lithium salt], the figures for the IC50 in data set [6] and in data set [7] were 730 nM and 530 nM, respectively.

As to `CC1=C[C@@H]2CN(C(=O)N2OC(F)C(=O)O)[C@@H]1C(=O)NCc1cnccn1` (stereo partly drawn) [Example 30, 2-fluoro-2-(((2S,5R)-3-methyl-7-oxo-2-((pyrazin-2-ylmethyl)carbamoyl)-1,6-diazabicyclo[3.2.1]oct-3-en-6-yl)oxy)acetic acid lithium salt], the IC50 stood at 81 nM in data set [6] and 140 nM in data set [7].
